Reference: PMC7463651, “Phase I/Ib Study of Tenalisib (RP6530), a Dual PI3K δ/γ Inhibitor in Patients with Relapsed/Refractory T-Cell Lymphoma” (Cancers, 2020)

System: patients with relapsed/refractory T Cell Lymphoma
Assay: Safety assessment (adverse events per CTCAE v4.03, DLT/MTD) in phase I/Ib study
Format: in vivo, human
Method: Protocol defined hematological or non-hematological toxicity was considered dose-limiting if it occurred during the first cycle (within the first 28 d) and was considered related to Tenalisib. Hematological DLTs was defined as Grade 4 anemia; Grade 4 neutropenia for >7 days, or Grade ≥3 febrile neutropenia with fever >38.5 °C [101 °F]; Grade 4 thrombocytopenia for >7 days, or Grade ≥3 thrombocytopenia associated with Grade >2 bleeding.
Safety assessment included adverse event (AE) and serious adverse events (SAE) as per Common Terminology Criteria for Adverse Events (CTCAE), Version 4.03. During dose escalation, safety assessments were performed at weekly intervals during Cycle 1 and Cycle 2 and at two weekly intervals during Cycle 3 and 4. After completion of Cycle 4, safety assessments were performed on Day 1 of each subsequent cycle. In dose expansion phase, all safety assessments were performed on Day 1 of each cycle.

[1] = Relationship-Related, Total (N = 58)
[2] = Relationship-all, Dose Escalation (N = 19)
[3] = Relationship-all, Dose Expansion (N = 39)

CC[C@H](Nc1ncnc2[nH]cnc12)c1oc2ccccc2c(=O)c1-c1cccc(F)c1 [Tenalisib]
Neutropenia: count of events [1]: 3 | Neutropenia: patients with event [1]: 3 (5.2%) n (%) | Pruritus: count of events [1]: 4 | Pruritus: patients with event [1]: 4 (6.9%) n (%) | Pyrexia: count of events [1]: 5 | Pyrexia: patients with event [1]: 3 (5.2%) n (%) | Vomiting: count of events [1]: 4 | Vomiting: patients with event [1]: 3 (5.2%) n (%) | Grade 3/4 Alanine aminotransferase increased: count of events (Relationship-all): 5 | Grade 3/4 Alanine aminotransferase increased: patients with event (Relationship-all): 5 (26.3%) n (%) | Grade 3/4 Anemia: count of events (Relationship-all): 2 | Grade 3/4 Anemia: patients with event (Relationship-all): 2 (10.5%) n (%) | Grade 3/4 Aspartate aminotransferase increased: count of events (Relationship-all): 4 | Grade 3/4 Aspartate aminotransferase increased: patients with event (Relationship-all): 4 (21.1%) n (%) | Grade 3/4 Fatigue: count of events (Relationship-all): 1 | Grade 3/4 Fatigue: patients with event (Relationship-all): 1 (5.3%) n (%) | Grade 3/4 Hyponatremia: count of events (Relationship-all): 2 | Grade 3/4 Hyponatremia: patients with event (Relationship-all): 2 (10.5%) n (%) | Grade 3/4 Neutropenia: count of events (Relationship-all): 2 | Grade 3/4 Neutropenia: patients with event (Relationship-all): 2 (10.5%) n (%) | Grade 3/4 Thrombocytopenia: count of events (Relationship-all): 1 | Grade 3/4 Thrombocytopenia: patients with event (Relationship-all): 1 (5.3%) n (%) | Abdominal pain: count of events [2]: 3 | Abdominal pain: patients with event [2]: 3 (15.8%) n (%) | Alanine aminotransferase increased: count of events [2]: 13 | Alanine aminotransferase increased: patients with event [2]: 6 (31.6%) n (%) | Anemia: count of events [2]: 6 | Anemia: patients with event [2]: 3 (15.8%) n (%) | Aspartate aminotransferase increased: count of events [2]: 16 | Aspartate aminotransferase increased: patients with event [2]: 7 (36.8%) n (%) | Blood creatinine increased: count of events [2]: 1 | Vomiting: count of events [2]: 5 | Vomiting: patients with event [2]: 4 (21.1%) n (%) | Abdominal pain: count of events [3]: 6 | Abdominal pain: patients with event [3]: 5 (12.8%) n (%) | Alanine aminotransferase increased: count of events [3]: 20 | Alanine aminotransferase increased: patients with event [3]: 14 (35.9%) n (%) | Anemia: count of events [3]: 10 | Anemia: patients with event [3]: 6 (15.4%) n (%) | Aspartate aminotransferase increased: count of events [3]: 21 | Aspartate aminotransferase increased: patients with event [3]: 14 (35.9%) n (%) | Blood creatinine increased: count of events [3]: 6 | Blood creatinine increased: patients with event [3]: 6 (15.4%) n (%) | Blood thyroid stimulating hormone increased: count of events [3]: 5 | Blood thyroid stimulating hormone increased: patients with event [3]: 4 (10.3%) n (%) | Constipation: count of events [3]: 5 | Constipation: patients with event [3]: 5 (12.8%) n (%) | Cough: count of events [3]: 9 | Cough: patients with event [3]: 7 (17.9%) n (%) | Decreased appetite: count of events [3]: 8 | Decreased appetite: patients with event [3]: 7 (17.9%) n (%) | Dehydration: count of events [3]: 13 | Dehydration: patients with event [3]: 10 (25.6%) n (%) | Diarrhea: count of events [3]: 19 | Diarrhea: patients with event [3]: 14 (35.9%) n (%) | Dizziness: count of events [3]: 9 | Dizziness: patients with event [3]: 7 (17.9%) n (%) | Dry skin: count of events [3]: 6 | Dry skin: patients with event [3]: 5 (12.8%) n (%) | Dyspnea: count of events [3]: 2 | Dyspnea: patients with event [3]: 2 (5.1%) n (%) | Fatigue: count of events [3]: 19 | Fatigue: patients with event [3]: 18 (46.2%) n (%) | Gamma-glutamyl transferase increased: count of events [3]: 9 | Gamma-glutamyl transferase increased: patients with event [3]: 6 (15.4%) n (%) | Headache: count of events [3]: 9 | Headache: patients with event [3]: 7 (17.9%) n (%) | Hypokalemia: count of events [3]: 5 | Hypokalemia: patients with event [3]: 3 (7.7%) n (%) | Hyponatremia: count of events [3]: 5 | Hyponatremia: patients with event [3]: 4 (10.3%) n (%) | Insomnia: count of events [3]: 4 | Insomnia: patients with event [3]: 3 (7.7%) n (%) | Muscle spasms: count of events [3]: 4 | Muscle spasms: patients with event [3]: 4 (10.3%) n (%) | Nausea: count of events [3]: 9 | Nausea: patients with event [3]: 9 (23.1%) n (%) | Pruritus: count of events [3]: 5 | Pruritus: patients with event [3]: 5 (12.8%) n (%) | Psychiatric disorders: count of events [3]: 12 | Psychiatric disorders: patients with event [3]: 7 (17.9%) n (%) | Pyrexia: count of events [3]: 17
